Where two headings read alike, the source gives them in different places.
Experiments:
[1] = biological target: T1, C4760 DNA polymerase (a variant of DPO4) (Saccharolobus solfataricus, UniProt Q97W02, A155G/A42V/D156R/D292Y/D294N/E291S/E324K/E325K/E327K/E63R/E79L/G187P/G299W/I153V/I189F/I248T/I295S/K152A/K317Q/K321Q/K56Y/K78D/L293W/M76W/N188Y/P184Q/Q82W/Q83G/R300S/S297Y/S86E/T290K/T301W/V289W/V296Q); type: biochemical, Sulfolobus solfataricus; conditions: for XNTP polymerization relative to compound 10: 30 minutes at 23 °C; for XNTP polymerization relative to compound 14: compound 16 at 2 Mm, compound 17 at 0.5, 1, 2, 3 Mm, 30 minutes at 37 °C, FIG. 13
T1 construct: Eco or Kod SSB in reaction as additive
T1 sequence (Q97W02 1-340 A155G/A42V/D156R/D292Y/D294N/E291S/E324K/E325K/E327K/E63R/E79L/G187P/G299W/I153V/I189F/I248T/I295S/K152A/K317Q/K321Q/K56Y/K78D/L293W/M76W/N188Y/P184Q/Q82W/Q83G/R300S/S297Y/S86E/T290K/T301W/V289W/V296Q): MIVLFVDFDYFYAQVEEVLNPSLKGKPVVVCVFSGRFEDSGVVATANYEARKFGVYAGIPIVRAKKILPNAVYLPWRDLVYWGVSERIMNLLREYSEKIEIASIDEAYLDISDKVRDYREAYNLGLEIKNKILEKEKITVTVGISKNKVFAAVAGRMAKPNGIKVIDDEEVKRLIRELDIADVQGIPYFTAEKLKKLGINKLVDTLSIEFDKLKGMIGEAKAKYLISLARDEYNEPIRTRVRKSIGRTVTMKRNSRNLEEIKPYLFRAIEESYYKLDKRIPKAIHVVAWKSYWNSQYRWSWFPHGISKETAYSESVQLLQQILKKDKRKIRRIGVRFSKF
Protocol: (§1) PEM activity of compound 12 was tested in primer extension assays using the HIV2 100mer template. Primer extension reactions included the following reagents: 50 Mm TrisCl, 200 Mm NH4Oac, 20% PEG8K, 5% NMS, 0.6 nmol PP-60.20, 0.6 Mm MnCl2, 2.75 μg/μl Eco single-strand binding protein (SSB), 1 M urea, 50 pmol each XNTP, 1.1 pmol template, 1 pmol [COMPOUND LEFT OUT] primer, 1.2 μg/μl purified recombinant C4760 DNA polymerase (SEQ ID NO: 2), and 0.5, 1, or 1.5 Mm PEM. 10 μL primer extension reactions were run for 30 minutes at 23 °C and reaction products were analyzed by gel electrophoresis.
as §1, with “compounds 13 and 14” for “compound 12”, “(a variant of DPO4, see SEQ” for “(SEQ”, “1, 1.52,” for “1,”, “2.5” for “1.5”, “electrophoresis. A representative gel showing primer extension products is presented in FIG. 11 (the position of the full length HIV2 100mer is indicated by the arrow).” for “electrophoresis.”
PEM activity of compounds 16, 17, and 18 and combinations thereof were tested in primer extension assays using the HIV2-derived 100mer template. […] 10 μL primer extension reactions were run for 30 minutes at 37 °C and reaction products were analyzed by gel electrophoresis. A representative gel showing primer extension products is presented in FIG. 13 (the position of a 100mer product is indicated by the arrow).

[2] = biological target: T1, C4760 DNA polymerase (a variant of DPO4); assay: Primer extension on 45mer RNA template (HIV2) with C4760 polymerase, gel; type: biochemical, Sulfolobus solfataricus; conditions: 2 Mm PEM, 45mer RNA template derived from HIV2, Kod SSB, 30 minutes at 37 °C
Protocol: To begin to investigate the potential of PEMs to enhance diverse polymerase reactions, the ability of PEMS to enable DNA polymerase to utilize RNA as a template was tested. An initial screen of several compounds set forth in Table 1 was conducted using a 45mer RNA template derived from the HIV2 genome sequence. Primer extension reactions included the following reagents: 50 Mm TrisCl, 200 Mm NH4OAc, 20% PEG8K, 5% NMS, 0.6 nmol PP-60.20, 0.6 Mm MnCl2, 2 μg Kod single-strand binding protein (SSB), 1 M urea, 50 pmol each XNTP, 0.5 pmol template, 0.5 pmol [COMPOUND LEFT OUT] primer, 1.2 μg purified recombinant C4760 DNA polymerase (a variant of DPO4, see SEQ ID NO: 2), and 2 Mm PEM. 10 μL primer extension reactions were run for 30 minutes at 37 °C and reaction products were analyzed by gel electrophoresis.

[3] = 0.5, 1, 1.52, or 2.5 Mm PEM, FIG. 11

SMILES: N#Cc1cc(-c2cn(-c3ccc(O)c(C(=O)O)c3)nn2)nc(-c2cn(-c3ccc(O)c(C(=O)O)c3)nn2)c1 [Compound 12, 5,5′-((4-cyanopyridine-2,6-diyl)bis(1H-1,2,3-triazole-4,1-diyl))bis(2-hydroxybenzoic acid)]
- XNTP polymerization relative to compound 10 ([1]; 0.5, 1, or 1.5 Mm PEM, FIG. 10): comparable to that of compound 10

SMILES: Cc1cc(-c2cn(-c3ccc(C(=O)O)c(O)c3)nn2)nc(-c2cn(-c3ccc(C(=O)O)c(O)c3)nn2)c1 [Compound 13, 4,4′-((4-methylpyridine-2,6-diyl)bis(1H-1,2,3-triazole-4,1-diyl))bis(2-hydroxybenzoic acid)]
- XNTP polymerization relative to compound 10 [1, 3]: comparable to that of compound 10

SMILES: CCOC(=O)c1cc(-c2cn(-c3ccc(C(=O)O)c(O)c3)nn2)nc(-c2cn(-c3ccc(C(=O)O)c(O)c3)nn2)c1 [Compound 14, 4,4′-((4-(ethoxycarbonyl)pyridine-2,6-diyl)bis(1H-1,2,3-triazole-4,1-diyl))bis(2-hydroxybenzoic acid)]
- XNTP polymerization relative to compound 10 [1, 3]: comparable to that of compound 10

SMILES: COC(=O)c1cc(-c2cn(-c3ccc(C(=O)O)c(O)c3)nn2)nc(-c2cn(-c3ccc(C(=O)O)c(O)c3)nn2)c1 [Compound 16, 4,4′-((4-(methoxycarbonyl)pyridine-2,6-diyl)bis(1H-1,2,3-triazole-4,1-diyl))bis(2-hydroxybenzoic acid)]
- XNTP polymerization relative to compound 14 [1]: comparable to that of compound 14

SMILES: CCNC(=O)c1cc(-c2cn(-c3ccc(C(=O)O)c(O)c3)nn2)nc(-c2cn(-c3ccc(C(=O)O)c(O)c3)nn2)c1 [Compound 17, 4,4′-((4-(ethylcarbamoyl)pyridine-2,6-diyl)bis(1H-1,2,3-triazole-4,1-diyl))bis(2-hydroxybenzoic acid)]
- PEM activity on RNA template [2]: display PEM activity on an RNA template
- XNTP polymerization relative to compound 14 [1]: comparable to that of compound 14

SMILES: CCN(CC)C(=O)c1cc(-c2cn(-c3ccc(C(=O)O)c(O)c3)nn2)nc(-c2cn(-c3ccc(C(=O)O)c(O)c3)nn2)c1 [Compound 49, 4,4′-((4-(diethylcarbamoyl)pyridine-2,6-diyl)bis(1H-1,2,3-triazole-4,1-diyl))bis(2-hydroxybenzoic acid)]
- PEM activity on RNA template [2]: display PEM activity on an RNA template

SMILES: O=C(O)c1ccc(-n2cc(-c3cc(C(=O)N4CCOCC4)cc(-c4cn(-c5ccc(C(=O)O)c(O)c5)nn4)n3)nn2)cc1O [Compound 51, 4,4′-((4-(morpholine-4-carbonyl)pyridine-2,6-diyl)bis(1H-1,2,3-triazole-4,1-diyl))bis(2-hydroxybenzoic acid)]
- PEM activity on RNA template [2]: display PEM activity on an RNA template

SMILES: CCNC(=O)c1cc(-c2cn(-c3ccc(C(=O)O)c(C(F)(F)F)c3)nn2)nc(-c2cn(-c3ccc(C(=O)O)c(C(F)(F)F)c3)nn2)c1 [Compound 73, 4,4′-((4-(ethylcarbamoyl)pyridine-2,6-diyl)bis(1H-1,2,3-triazole-4,1-diyl))bis(2-(trifluoromethyl)benzoic acid)]
- PEM activity on RNA template [2]: display PEM activity on an RNA template

SMILES: CCNC(=O)c1cc(-c2cn(-c3ccc(C(F)(F)F)c(C(=O)O)c3)nn2)nc(-c2cn(-c3ccc(C(F)(F)F)c(C(=O)O)c3)nn2)c1 [Compound 75, 5,5′-((4-(ethylcarbamoyl)pyridine-2,6-diyl)bis(1H-1,2,3-triazole-4,1-diyl))bis(2-(trifluoromethyl)benzoic acid)]
- PEM activity on RNA template [2]: display PEM activity on an RNA template

SMILES: CCNC(=O)c1cc(-c2cn(-c3ccc(C(=O)O)c(F)c3)nn2)nc(-c2cn(-c3ccc(C(=O)O)c(F)c3)nn2)c1 [Compound 76, 4,4′-((4-(ethylcarbamoyl)pyridine-2,6-diyl)bis(1H-1,2,3-triazole-4,1-diyl))bis(2-fluorobenzoic acid)]
- PEM activity on RNA template [2]: display PEM activity on an RNA template

SMILES: CCNC(=O)c1cc(-c2cn(-c3cc(C(=O)O)cc(C(F)(F)F)c3)nn2)nc(-c2cn(-c3cc(C(=O)O)cc(C(F)(F)F)c3)nn2)c1 [Compound 93, 5,5′-((4-(ethylcarbamoyl)pyridine-2,6-diyl)bis(1H-1,2,3-triazole-4,1-diyl))bis(3-(trifluoromethyl)benzoic acid)]
- PEM activity on RNA template [2]: display PEM activity on an RNA template

SMILES: O=C(NCCO)c1cc(-c2cn(-c3ccc(C(=O)O)c(C(F)(F)F)c3)nn2)nc(-c2cn(-c3ccc(C(=O)O)c(C(F)(F)F)c3)nn2)c1 [Compound 105, 4,4′-((4-((2-hydroxyethyl)carbamoyl)pyridine-2,6-diyl)bis(1H-1,2,3-triazole-4,1-diyl))bis(2-(trifluoromethyl)benzoic acid)]
- PEM activity on RNA template [2]: display PEM activity on an RNA template

SMILES: CCNC(=O)c1cc(-c2cn(-c3ccc(C(=O)O)c([N+](=O)[O-])c3)nn2)nc(-c2cn(-c3ccc(C(=O)O)c([N+](=O)[O-])c3)nn2)c1 [Compound 106, 4,4′-((4-(ethylcarbamoyl)pyridine-2,6-diyl)bis(1H-1,2,3-triazole-4,1-diyl))bis(2-nitrobenzoic acid)]
- PEM activity on RNA template [2]: display PEM activity on an RNA template

SMILES: CCNC(=O)c1cc(-c2cn(-c3ccc(C(=O)NCC(=O)O)c(C(F)(F)F)c3)nn2)nc(-c2cn(-c3ccc(C(=O)NCC(=O)O)c(C(F)(F)F)c3)nn2)c1 [Compound 110, 2,2′-((4,4′-((4-(ethylcarbamoyl)pyridine-2,6-diyl)bis(1H-1,2,3-triazole-4,1-diyl))bis(2-(trifluoromethyl)benzoyl))bis(azanediyl))diacetic acid]
- PEM activity on RNA template [2]: display PEM activity on an RNA template

SMILES: CCNC(=O)c1cc(-n2cc(-c3ccc(C(=O)O)c(C(F)(F)F)c3)nn2)cc(-n2cc(-c3ccc(C(=O)O)c(C(F)(F)F)c3)nn2)c1 [Compound 116, 4,4′-((5-(ethylcarbamoyl)-1,3-phenylene)bis(1H-1,2,3-triazole-1,4-diyl))bis(2-(trifluoromethyl)benzoic acid)]
- PEM activity on RNA template [2]: display PEM activity on an RNA template

SMILES: O=C(O)c1ccc(-n2cc(-c3ccc(-c4cn(-c5ccc(C(=O)O)c(C(F)(F)F)c5)nn4)o3)nn2)cc1C(F)(F)F [Compound 118, 4,4′-(furan-2,5-diylbis(1H-1,2,3-triazole-4,1-diyl))bis(2-(trifluoromethyl)benzoic acid)]
- PEM activity on RNA template [2]: display PEM activity on an RNA template

Reference: patent publication US20260365633A1, “Novel PEM Structures for SBX” (Roche Sequencing Solutions, Inc., priority 2023, published 2026)
